From ChEMBL document CHEMBL5724696, “Autophagy assay results for EUbOPEN Chemogenomics Library” (2024)
Several values for one entry are separate records, joined by “and”; a condition that tells them apart may be missing. Equal values may be shown once.

What was measured:
Format in all cases: functional, Homo sapiens
[1] = test system: TERT-RPE1; test: (§1) Here: values are normalized to the negative (DMSO; defined as 0% autophagy induction) and positive (250nM Torin1; mTOR inhibitor; defined as maximal inducer of autophagy = 100%) control compounds and represented as % of autophagy induction. […] The impact of autophagy induction on cells is complex and depends on the affected target. As such, the magnitude of a phenotype may not be equally mirrored in the %-value of autophagy induction and vice versa. The dynamics of the induction may indicate the mode of activation: e.g. activation via phosphorylation or a signaling cascade may occur fast, while activation via transcription factors may take considerably longer. […] Of note, treatment concentrations may be sub-optimal for specific compounds, leading to false negative annotations.; details: Culturing Media DMEM/F12 (1:1), 1 % Penicillin/Streptomycin, 10% Fetal bovin serum Add-On: No, Screening Media Control DMEM/F12 (1:1), Screening Media Samples DMEM/F12 (1:1)
[2] = test system: U2OS; test: as §1; details: Culturing Media DMEM, 1 % Penicillin/Streptomycin, 10% Fetal bovin serum Add-On: No, Screening Media Control DMEM, Screening Media Samples DMEM
[3] = test system: U2OS; test: as §1; details: Culturing Media DMEM, 1 % Penicillin/Streptomycin, 10% Fetal bovin serum Add-On: No, Screening Media Control DMEM, Screening Media Samples DMEM; remark: listed apart in the source
[4] = Compound Concentration 0.5 uM, Timepoint 12 hours
[5] = Compound Concentration 0.5 uM, Timepoint 24 hours
[6] = Compound Concentration 0.5 uM, Timepoint 36 hours
[7] = Compound Concentration 0.5 uM, Timepoint 60 hours
[8] = Compound Concentration 2 uM, Timepoint 12 hours
[9] = Compound Concentration 2 uM, Timepoint 24 hours
[10] = Compound Concentration 2 uM, Timepoint 36 hours
[11] = Compound Concentration 2 uM, Timepoint 60 hours
[12] = Compound Concentration 10 uM, Timepoint 12 hours
[13] = Compound Concentration 10 uM, Timepoint 24 hours
[14] = Compound Concentration 10 uM, Timepoint 36 hours
[15] = Compound Concentration 10 uM, Timepoint 60 hours

SMILES | autophagy induction [2, 4] [%] | autophagy induction [2, 5] [%] | autophagy induction [2, 6] [%] | autophagy induction [2, 7] [%] | autophagy induction [2, 8] [%] | autophagy induction [2, 9] [%] | autophagy induction [2, 10] [%] | autophagy induction [2, 11] [%] | autophagy induction [2, 12] [%] | autophagy induction [2, 13] [%] | autophagy induction [2, 14] [%] | autophagy induction [2, 15] [%] | autophagy induction [3, 4] [%] | autophagy induction [3, 5] [%] | autophagy induction [3, 6] [%] | autophagy induction [3, 7] [%] | autophagy induction [3, 8] [%] | autophagy induction [3, 9] [%] | autophagy induction [3, 10] [%] | autophagy induction [3, 11] [%] | other results
COc1ccc(C2(O)OC(=O)C(c3ccc4c(c3)OCO4)=C2Cc2cc(OC)c(OC)c(OC)c2)cc1 (stereo unspecified) [PD-156707] | -0.3009 | 0.4369 | -0.07956 | -0.9865 | -2.496 | -1.926 | -0.6682 | -1.242 | -0.3825 | -1.441 | -0.8744 | -0.2319 | 2.427 | 7.779 | 2.534 | -0.8382 | -5.016 | 3.24 | -2.65 | -6.1634 | autophagy induction [1, 4]: -7.977%; autophagy induction [1, 5]: -6.312%; autophagy induction [1, 6]: -1.3569%; autophagy induction [1, 7]: 6.352%; autophagy induction [1, 8]: -3.2518%; autophagy induction [1, 9]: -7.638%; autophagy induction [1, 10]: -7.617%; autophagy induction [1, 11]: -7.701%; autophagy induction [1, 12]: -8.81%; autophagy induction [1, 13]: -9.172%; autophagy induction [1, 14]: -8.276%; autophagy induction [1, 15]: -11.0822%; autophagy induction [3, 12]: -12.4956%; autophagy induction [3, 13]: -10.1664%; autophagy induction [3, 14]: -12.3712%; autophagy induction [3, 15]: -18.4825%
CCC[C@H](Oc1cc(C)c(-n2cc(C(F)(F)F)cn2)c(C)c1)c1ccc(C(=O)NCCC(=O)O)cc1 [PF-06291874] | -5.893 | -2.993 | -60.6887 | -2.982 | -4.845 | -1.051 | -59.3505 | -1.615 | -7.606 | -1.597 | -60.4241 | -2.455 | -11.4233 | -19.405 | -11.4713 | -20.1699 | -1.65 | -7.926 | -7.132 | -11.198 | autophagy induction ([1]; Compound Concentration 0.5 uM, Timepoint 36 hours, 36 h, 0.5 µM): -0.178% and 20.1142%; autophagy induction [3, 12]: 3.31%; autophagy induction [3, 13]: 3.258%; autophagy induction [3, 14]: -0.5015%; autophagy induction [3, 15]: -15.9451%
